Data as given in US4155912A, “2-Methylpenem-3-carboxylic acid antibiotics” (Bristol-Myers Company, priority 1977, dated 1979).
Values after ≈ are worked out from the molar mass of the structure shown. Where two headings read alike, the source gives them in different places. Values belong to the compound of their own block, whether it stands above or below them.

Experiments:
Ent. cloacae A-9659 = test: MIC by tube dilution, Ent. cloacae A-9659; format: cell-based; conditions: 37° C.
Description: (§1) The in vitro minimum inhibitory concentrations (MIC) of d,l-2-methylpenem-3-carboxylic acid, (+)-2-methylpenem-3-carboxylic acid and (-)-2-methylpenem-3-carboxylic acid were determined for a number of microorganisms as determined by overnight incubation at 37° C. by tube dilution. Ampicillin was included as a comparison compound.

E. coli A-15119 = test: MIC by tube dilution, E. coli A-15119; format: cell-based; conditions: 37° C.
Description: as §1

Str. pyogenes A-9604 = test: MIC by tube dilution, Str. pyogenes A-9604; format: cell-based; conditions: Streptococcus pyogenes, A9604, Str. pyogenes A-9604, overnight, 37° C.
Description: as §1

K. pneumoniae A-20468 = test: MIC by tube dilution, K. pneumoniae A-20468; format: cell-based; conditions: 37° C.; for MIC: Klebsiella pneumoniae, A20468, overnight
Description: as §1

Str. faecalis A-20688 = test: MIC by tube dilution, Str. faecalis A-20688; format: cell-based; conditions: 37° C.
Description: as §1

Pr. rettgeri A-21205 = test: MIC by tube dilution, Pr. rettgeri A-21205; format: cell-based; conditions: 37° C.; for M.I.C.: Pr. rettgeri A-21205, overnight
Description: as §1

Pr. morganii A-15153 = test: MIC by tube dilution, Pr. morganii A-15153; format: cell-based; conditions: 37° C.
Description: as §1

Ent. cloacae A-9656 = test: MIC by tube dilution, Ent. cloacae A-9656; format: cell-based; conditions: 37° C.
Description: as §1

[1] = system: Staph. aureus (Pen-Res) A-9606; test: MIC by tube dilution, Staph. aureus (Pen-Res) A-9606; format: cell-based; conditions: overnight, 37° C.
Description: as §1

Ps. aeruginosa A-21213 = test: MIC by tube dilution, Ps. aeruginosa A-21213; format: cell-based; conditions: 37° C.; for MIC: Pseudomonas aeruginosa, A21213, Ps. aeruginosa A-21213, overnight
Description: as §1

[2] = Mouse blood levels after oral administration; format: in vivo
From the text: Blood level values represent averages of 4 experiments for
d,l-2-methylpenem-3-carboxylic acid, 3 for ampicillin and 1 for
Assay Organism: Bacillus megaterium A-9737

Ser. marcescens A-20019 = test: MIC by tube dilution, Ser. marcescens A-20019; format: cell-based; conditions: 37° C.
Description: as §1

E. coli A-20341-1 = test: MIC by tube dilution, E. coli A-20341-1; format: cell-based; conditions: 37° C.
Description: as §1

Pr. mirabilis A-9900 = test: MIC by tube dilution, Pr. mirabilis A-9900; format: cell-based; conditions: 37° C.
Description: as §1

[3] = system: Staph. aureus (Meth-Res) A-15097; test: MIC by tube dilution, Staph. aureus (Meth-Res) A-15097; format: cell-based; conditions: overnight, 37° C.
Description: as §1

Str. pneumoniae A-9585 = test: MIC by tube dilution, Str. pneumoniae A-9585; format: cell-based; conditions: Streptococcus pneumoniae, A9585, Str. pneumoniae A-9585, overnight, 37° C.
Description: as §1

Staph. aureus A-9537 = test: MIC by tube dilution, Staph. aureus A-9537; format: cell-based; conditions: Staphylococcus aureus, 37° C.
Description: as §1

Pr. vulgaris A-9716 = test: MIC by tube dilution, Pr. vulgaris A-9716; format: cell-based; conditions: 37° C.
Description: as §1

K. pneumoniae A-15130 = test: MIC by tube dilution, K. pneumoniae A-15130; format: cell-based; conditions: 37° C.
Description: as §1

in vivo = conditions: mouse, im, 40 mg/kg
Ps. aeruginosa A-9843A = test: MIC by tube dilution, Ps. aeruginosa A-9843A; format: cell-based; conditions: overnight, 37° C.
Description: as §1

bacteria [4] = conditions: as reported in literature; cited from earlier work
β-lactamases = conditions: as reported in literature; cited from earlier work
bacteria [5] = conditions: as reported in literature; cited from earlier work; remark: listed apart in the source
[6] = blood, oral, 100 mg./kg., 5 minutes after administration, read-out: Blood Level
[7] = blood, oral, 100 mg./kg., 10 minutes after administration, read-out: Blood Level
[8] = blood, oral, 100 mg./kg., 15 minutes after administration, read-out: Blood Level
[9] = blood, oral, 100 mg./kg., 30 minutes after administration, read-out: Blood Level
[10] = blood, oral, 100 mg./kg., 45 minutes after administration, read-out: Blood Level

SMILES: CC1=C(C(=O)O)N2C(=O)C[C@H]2S1 (racemic) [d,l-2-methylpenem-3-carboxylic acid, 2-Methylpenem-3-carboxylic Acid]
MIC (Ent. cloacae A-9659; Enterobacter cloacae, A9659, Ent. cloacae A-9659, overnight): 16 µg/mL (≈ 86.4 µM)
MIC (E. coli A-15119; Escherichia coli, A15119, E. coli A-15119, overnight): 8 µg/mL (≈ 43.2 µM)
MIC (Str. pyogenes A-9604): 0.13 µg/mL (≈ 0.702 µM)
MIC (K. pneumoniae A-20468): > 125 µg/mL
MIC (Str. faecalis A-20688; Enterococcus faecalis, A20688, Str. faecalis A-20688, overnight): 32 µg/mL (≈ 173 µM)
MIC (Pr. rettgeri A-21205; Providencia rettgeri, A21205, Pr. rettgeri A-21205, overnight): 4 µg/mL (≈ 21.6 µM)
MIC (Pr. morganii A-15153; Morganella morganii, A15153, Pr. morganii A-15153, overnight): 16 µg/mL (≈ 86.4 µM)
MIC (Ent. cloacae A-9656; Enterobacter cloacae, A9656, Ent. cloacae A-9656, overnight): 16 µg/mL (≈ 86.4 µM)
MIC ([1]; Staphylococcus aureus): 1 µg/mL (≈ 5.4 µM)
MIC (Ps. aeruginosa A-21213): > 125 µg/mL
concentration at 5 min [2, 6]: 28000 ng/mL
concentration at 10 min [2, 7]: 25100 ng/mL
concentration at 0.25 h [2, 8]: 18400 ng/mL
concentration at 0.5 h [2, 9]: < 5600 ng/mL
concentration at 0.75 h [2, 10]: < 3900 ng/mL
concentration at 1 h ([2]; blood, oral, 100 mg./kg., 60 minutes after administration, read-out: Blood Level): < 4300 ng/mL
concentration at 2 h ([2]; blood, oral, 100 mg./kg., 120 minutes after administration, read-out: Blood Level): < 4300 ng/mL
MIC (Ser. marcescens A-20019; Serratia marcescens, A20019, Ser. marcescens A-20019, overnight): 8 µg/mL (≈ 43.2 µM)
MIC (E. coli A-20341-1; Escherichia coli, A203411, E. coli A-20341-1, overnight): 16 µg/mL (≈ 86.4 µM)
MIC (Pr. mirabilis A-9900; Proteus mirabilis, A9900, Pr. mirabilis A-9900, overnight): 8 µg/mL (≈ 43.2 µM)
MIC ([3]; Staphylococcus aureus): 1 µg/mL (≈ 5.4 µM)
MIC (Str. pneumoniae A-9585): 0.03 µg/mL (≈ 0.162 µM)
MIC (Staph. aureus A-9537; A9537, Staph. aureus A-9537, overnight): 0.13 µg/mL (≈ 0.702 µM)
MIC (Staph. aureus A-9537; A9537, Staph. aureus A-9537 and 50% serum, overnight): 8 µg/mL (≈ 43.2 µM)
MIC (Pr. vulgaris A-9716; Proteus vulgaris, A9716, Pr. vulgaris A-9716, overnight): 8 µg/mL (≈ 43.2 µM)
MIC (K. pneumoniae A-15130; Klebsiella pneumoniae, A15130, K. pneumoniae A-15130, overnight): 16 µg/mL (≈ 86.4 µM)
concentration at 5 min (in vivo): 27100 ng/mL
concentration at 0.25 h (in vivo): 12700 ng/mL
concentration at 0.5 h (in vivo): < 5900 ng/mL
concentration at 0.75 h (in vivo): < 5900 ng/mL
concentration at 1 h (in vivo): < 5900 ng/mL
MIC (Ps. aeruginosa A-9843A; Pseudomonas aeruginosa, A9843A): 125 µg/mL (≈ 675 µM)

SMILES: CC1=C(C(=O)O)N2C(=O)C[C@H]2S1 [l-2-methylpenem-3-carboxylic acid, (-)-2-methylpenem-3-carboxylic Acid]
M.I.C. (Ent. cloacae A-9659; Ent. cloacae A-9659, overnight): > 125 meg./ml.
M.I.C. (E. coli A-15119; E. coli A-15119, overnight): > 125 meg./ml.
M.I.C. (K. pneumoniae A-20468; overnight): > 125 meg./ml.
M.I.C. (Str. faecalis A-20688; Str. faecalis A-20688, overnight): 125 meg./ml.
M.I.C. (Pr. rettgeri A-21205): > 125 meg./ml.
M.I.C. (Pr. morganii A-15153; Pr. morganii A-15153, overnight): > 125 meg./ml.
M.I.C. (Ent. cloacae A-9656; Ent. cloacae A-9656, overnight): > 125 meg./ml.
M.I.C. [1]: > 125 meg./ml.
M.I.C. (Ps. aeruginosa A-21213; Ps. aeruginosa A-21213, overnight): > 125 meg./ml.
M.I.C. (Ser. marcescens A-20019; Ser. marcescens A-20019, overnight): > 125 meg./ml.
M.I.C. (E. coli A-20341-1; E. coli A-20341-1, overnight): > 125 meg./ml.
M.I.C. (Pr. mirabilis A-9900; Pr. mirabilis A-9900, overnight): > 125 meg./ml.
M.I.C. [3]: > 125 meg./ml.
M.I.C. (Pr. vulgaris A-9716; Pr. vulgaris A-9716, overnight): > 125 meg./ml.
M.I.C. (K. pneumoniae A-15130; K. pneumoniae A-15130, overnight): > 125 meg./ml.
M.I.C. (Ps. aeruginosa A-9843A): > 125 meg./ml.

concentration at 5 min [2, 6]: 1500 ng/mL
concentration at 10 min [2, 7]: 7100 ng/mL
concentration at 0.25 h [2, 8]: 9900 ng/mL
concentration at 0.5 h [2, 9]: 14000 ng/mL
concentration at 0.75 h [2, 10]: 15500 ng/mL
SMILES: CC1(C)S[C@@H]2[C@H](NC(=O)[C@H](N)c3ccc(O)cc3)C(=O)N2[C@H]1C(=O)O [Amoxicillin]

SMILES: O=C(O)C1C(=CCO)OC2CC(=O)N21 (stereo not drawn) [clavulinic acid]
effect on in vitro and in vivo activity of some penicillins and cephalosporins (bacteria [4]): enhances the in vitro and in vivo activity of some penicillins and cephalosporins
β-lactamase inhibition (β-lactamases): inhibits the action of certain β-lactamases
antibacterial activity (bacteria [5]): low order of antibacterial activity

SMILES: C[C@@H](O)[C@H]1C(=O)N2C(C(=O)O)=C(SCCN)C[C@H]12 [Thienamycin]
antibacterial activity (bacteria [5]): highly potent broad-spectrum antibiotic

SMILES: CC1(C)S[C@@H]2[C@H](NC(=O)[C@H](N)c3ccccc3)C(=O)N2[C@H]1C(=O)O [Ampicillin]
concentration at 5 min ([2]; in vivo, po, 100 mg/kg): 2100 ng/mL
concentration at 10 min ([2]; in vivo, po, 100 mg/kg): 3900 ng/mL
concentration at 0.25 h ([2]; in vivo, po, 100 mg/kg): 6100 ng/mL
concentration at 0.5 h ([2]; in vivo, po, 100 mg/kg): 8200 ng/mL
concentration at 0.75 h ([2]; in vivo, po, 100 mg/kg): 6100 ng/mL
concentration at 1 h ([2]; in vivo, po, 100 mg/kg): 7900 ng/mL
concentration at 2 h ([2]; in vivo, po, 100 mg/kg): 2800 ng/mL
concentration at 5 min (in vivo): 20800 ng/mL
concentration at 0.25 h (in vivo): 22800 ng/mL
concentration at 0.5 h (in vivo): 20000 ng/mL
concentration at 0.75 h (in vivo): 11800 ng/mL
concentration at 1 h (in vivo): 7100 ng/mL

SMILES: CC(=O)NC=C[S+]([O-])C1=C(C(=O)O)N2C(=O)C(C(C)OS(=O)(=O)O)C2C1 (stereo not drawn)
β-lactamase inhibition (β-lactamases): β-lactamase inhibitor
antibacterial activity (bacteria [5]): some antibacterial activity

SMILES: CC1=C(C(=O)O)N2C(=O)C[C@H]2S1 [d-2-methylpenem-3-carboxylic acid, (+)-2-methylpenem-3-carboxylic Acid]
MIC (K. pneumoniae A-20468): > 125 µg/mL
M.I.C. (Pr. rettgeri A-21205): 4 meg./ml.
MIC (Ps. aeruginosa A-21213): 63 µg/mL (≈ 340 µM)
M.I.C. (Ps. aeruginosa A-9843A): 32 meg./ml.
